In patent US20060024392A1, “Compositions and methods for enhancing the effectiveness of a chemotherapeutic agent” (priority 2004, published 2006):

Legend:
HT29 colon cancer cells = experiment: Sulforhodamine B (SRB) cell growth assay in HT29 colon cancer cells; type: cell-based
Procedure: HT-29, a cell line derived from colorectal adenocarcinoma (ATCC, HTB 38), grows in McCoy's 5A medium (Biowhittaker, Inc. Walkersville, Md.). NCM460, a cell line derived from a normal human colon (InCell Corp. San Antonio, Tex.), grows in M3 Base media (InCell Corp. San Antonio, Tex.).
Both cell lines are kept at 37° C. and 5% CO2 atmosphere. Both media are supplemented with 10% fetal bovine serum (FBS, Biowhittaker, Inc. Walkersville, Md.).
Cells are fixed in situ by the gentle addition of 50 μl of cold 50% (w/v) TCA (final concentration, 10% TCA) and incubated for 60 minutes at 4° C. The supernatant is discarded, and the plates are washed five times with tap water and air dried. Sulforhodamine B (SRB) solution (100 μl) at 0.4% (w/v) in 1% acetic acid is added to each well, and plates are incubated for 10 minutes at room temperature. After staining, unbound dye is removed by washing five times with 1% acetic acid and the plates are air dried. Bound stain is subsequently solubilized with 100 μl 10 mM trizma base for 5 minutes, and the absorbance at wavelength of 490 nm was spectrophotometrically measured using a microplate reader Elx800 (Bio-Tek instruments, Inc.).
Cells were seeded in 96-well cluster tissue culture plates (Costar), containing 100 μl complete growth medium per well at densities of 5,000 cells per well. Incubated at 37° C. in a humidified tissue culture incubator. After 24 Hour, 100 μl complete medium containing 5 half-log dilutions of the 5FU from 2*10^−4 to 2*10^−6 M was added into each well (final concentrations are from 10^−4 to 10^−6 M). Six replicates were used for each concentration. Media containing 0.125% DMSO was used as control. After 48 hours of incubation with 5FU in medium, cell proliferation was assessed using the SRB assay.
Percentage growth (Growth%) is calculated as: [(Ti−Tz)/(C−Tz)]×100 [absorbance measurements at time zero (Tz), control growth (C), and test growth in the presence of drug at the different concentration levels (Ti)].
Similar to the method used in testing GI50 of 5FU: HT29 was plated at 5000 cells per well. […] After 48 hour treatment, cell growth was assessed using SRB assay.
The protocol was the same as described above, except cells were exposed to 5FU at concentration ranging from 10^−4 to 10^−6 M with chokeberry ARE at concentration of 1.56, 5, 15.6, 50 μg monomeric anthocyanin/ml growth media.
The protocol was the similar to Experiment 1: Cells were exposed to half-log diluted SAC at concentration ranging from 3.2 to 1000 μM for 48 hour. Media containing 0.5% filtered water was used as control.
This experiment was to determine whether the antioxidant, SAC would enhance the effect of 5FU in HT29 cells. The protocol was the same as Experiment 3, except cells were exposed to 5FU at concentration ranging from 10^−4 to 10^−6 M with SAC at concentration of 10, 100, 1000 μM.

colon cancer = settings: clinical treatment of colon cancer; cited from earlier work
[1] = 5FU 1.0E−4 M, 48 h, experiment 1
[2] = 5FU 1.0E−4 M, 48 h, experiment 2
[3] = 5FU 1.0E−4 M, 48 h, experiment 3
[4] = 5FU 1.0E−4 M, 48 h, experiment 4
[5] = 5FU 1.0E−4.5 M, 48 h, experiment 1
[6] = 5FU 1.0E−4.5 M, 48 h, experiment 2
[7] = 5FU 1.0E−4.5 M, 48 h, experiment 3
[8] = 5FU 1.0E−4.5 M, 48 h, experiment 4
[9] = 5FU 1.0E−5 M, 48 h, experiment 1
[10] = 5FU 1.0E−5 M, 48 h, experiment 2
[11] = 5FU 1.0E−5 M, 48 h, experiment 3
[12] = 5FU 1.0E−5 M, 48 h, experiment 4
[13] = 5FU 1.0E−5.5 M, 48 h, experiment 1
[14] = 5FU 1.0E−5.5 M, 48 h, experiment 2
[15] = 5FU 1.0E−5.5 M, 48 h, experiment 3
[16] = 5FU 1.0E−5.5 M, 48 h, experiment 4
[17] = 5FU 1.0E−6 M, 48 h, experiment 1
[18] = 5FU 1.0E−6 M, 48 h, experiment 2
[19] = 5FU 1.0E−6 M, 48 h, experiment 3
[20] = 5FU 1.0E−6 M, 48 h, experiment 4
[21] = Table 2: 5FU at 1.0E-4.368 M alone, 48 h
[22] = Table 6 (1): 5FU 1.00E−04 M, SAC 0
[23] = Table 6 (1): 5FU 1.00E−05 M, SAC 0
[24] = Table 6 (1): 5FU 1.00E−06 M, SAC 0
[25] = Table 6 (2): 5FU 1.00E−04 M, SAC 0
[26] = Table 6 (2): 5FU 1.00E−05 M, SAC 0
[27] = Table 6 (2): 5FU 1.00E−06 M, SAC 0

Compound: O=c1[nH]cc(F)c(=O)[nH]1 [5FU, 5-fluorouracil]
- Growth % (HT29 colon cancer cells; [1]): 48.88%
- OD (HT29 colon cancer cells; [1]): 0.30
- Growth % (HT29 colon cancer cells; [2]): 34.83%
- OD (HT29 colon cancer cells; [2]): 0.25
- Growth % (HT29 colon cancer cells; [3]): 37.16%
- OD (HT29 colon cancer cells; [3]): 0.26
- Growth % (HT29 colon cancer cells; [4]): 42.91%
- OD (HT29 colon cancer cells; [4]): 0.25
- Growth % (HT29 colon cancer cells; [5]): 54.63%
- OD (HT29 colon cancer cells; [5]): 0.32
- Growth % (HT29 colon cancer cells; [6]): 44.48%
- OD (HT29 colon cancer cells; [6]): 0.27
- Growth % (HT29 colon cancer cells; [7]): 43.58%
- OD (HT29 colon cancer cells; [7]): 0.27
- Growth % (HT29 colon cancer cells; [8]): 53.85%
- OD (HT29 colon cancer cells; [8]): 0.27
- Growth % (HT29 colon cancer cells; [9]): 60.38%
- OD (HT29 colon cancer cells; [9]): 0.33
- Growth % (HT29 colon cancer cells; [10]): 57.93%
- OD (HT29 colon cancer cells; [10]): 0.31
- Growth % (HT29 colon cancer cells; [11]): 56.76%
- OD (HT29 colon cancer cells; [11]): 0.31
- Growth % (HT29 colon cancer cells; [12]): 70.85%
- OD (HT29 colon cancer cells; [12]): 0.32
- Growth % (HT29 colon cancer cells; [13]): 82.11%
- OD (HT29 colon cancer cells; [13]): 0.40
- Growth % (HT29 colon cancer cells; [14]): 77.24%
- OD (HT29 colon cancer cells; [14]): 0.37
- Growth % (HT29 colon cancer cells; [15]): 76.69%
- OD (HT29 colon cancer cells; [15]): 0.37
- Growth % (HT29 colon cancer cells; [16]): 87.85%
- OD (HT29 colon cancer cells; [16]): 0.36
- Growth % (HT29 colon cancer cells; [17]): 94.25%
- OD (HT29 colon cancer cells; [17]): 0.44
- Growth % (HT29 colon cancer cells; [18]): 94.83%
- OD (HT29 colon cancer cells; [18]): 0.42
- Growth % (HT29 colon cancer cells; [19]): 88.51%
- OD (HT29 colon cancer cells; [19]): 0.41
- Growth % (HT29 colon cancer cells; [20]): 96.36%
- OD (HT29 colon cancer cells; [20]): 0.38
- growth inhibition (HT29 colon cancer cells; 5FU alone at GI50 concentration (FIG. 1)): 65%
- Growth % (HT29 colon cancer cells; [21]): 35.02%
- OD (HT29 colon cancer cells; [21]): 0.22
- Growth % (HT29 colon cancer cells; Table 3: 5FU 1.0E−4 M, ARE 0): 29.77%
- OD (HT29 colon cancer cells; Table 3: 5FU 1.0E−4 M, ARE 0): 0.20
- Growth % (HT29 colon cancer cells; Table 3: 5FU 1.0E−5 M, ARE 0): 49.30%
- OD (HT29 colon cancer cells; Table 3: 5FU 1.0E−5 M, ARE 0): 0.24
- Growth % (HT29 colon cancer cells; Table 3: 5FU 1.0E−6 M, ARE 0): 82.33%
- OD (HT29 colon cancer cells; Table 3: 5FU 1.0E−6 M, ARE 0): 0.31
- Growth % (HT29 colon cancer cells; [22]): 27.44%
- OD (HT29 colon cancer cells; [22]): 0.175
- Growth % (HT29 colon cancer cells; [23]): 52.09%
- OD (HT29 colon cancer cells; [23]): 0.228
- Growth % (HT29 colon cancer cells; [24]): 91.63%
- OD (HT29 colon cancer cells; [24]): 0.313
- Growth % (HT29 colon cancer cells; [25]): 26.16%
- OD (HT29 colon cancer cells; [25]): 0.178
- Growth % (HT29 colon cancer cells; [26]): 43.46%
- OD (HT29 colon cancer cells; [26]): 0.219
- Growth % (HT29 colon cancer cells; [27]): 79.32%
- OD (HT29 colon cancer cells; [27]): 0.304
- growth of cells, % of control (HT29 colon cancer cells; highest concentration of 5FU alone): 30 % of control
- growth of cells, % of control (HT29 colon cancer cells; intermediate concentration of 5FU alone): 50 % of control
- growth of cells, % of control (HT29 colon cancer cells; lowest concentration of 5FU (10^−6 M) alone): 80 % of control
- response rate (colon cancer): 20%
